One assay has as its target T1, rat thoracic aorta rings (Rattus norvegicus, UniProt P49684).
T1 sequence (P49684 1-386): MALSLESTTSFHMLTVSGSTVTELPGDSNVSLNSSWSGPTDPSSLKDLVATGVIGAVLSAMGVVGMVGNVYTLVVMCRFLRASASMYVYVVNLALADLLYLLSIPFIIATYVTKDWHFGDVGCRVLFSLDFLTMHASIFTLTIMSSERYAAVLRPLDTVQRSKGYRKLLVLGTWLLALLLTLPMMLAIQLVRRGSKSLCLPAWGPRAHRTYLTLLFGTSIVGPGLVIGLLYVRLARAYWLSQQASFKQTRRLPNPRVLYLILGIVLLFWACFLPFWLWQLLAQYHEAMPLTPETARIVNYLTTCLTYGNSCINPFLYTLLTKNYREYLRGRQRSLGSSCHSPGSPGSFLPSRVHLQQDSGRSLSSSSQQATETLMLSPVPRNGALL
The assay can be described thus: Modulation of hUII-mediated rat aortic ring contraction. The settings on record: for Emax: read-out: hUII Emax after pepducin pretreatment. The procedure: Each replicate (n) was conducted on tissue obtained from at least three different animals. Data represent mean ± SEM.
Adult male Sprague-Dawley rats (Charles-River) weighing 250–300 g were housed in cages under controlled illumination (12:12 h light–dark cycle), humidity, and temperature (21–23 °C) and had free access to tap water and rat chow. All experimental procedures were performed in accordance with regulations and ethical guidelines from the Canadian Council for the Care of Laboratory Animals and received approvals of the institutional animal care and use committee of the Institut National de la Recherche Scientifique—Centre Armand-Frappier Santé Biotechnologie. As previously described ([17], [18]), the thoracic aorta was cleared of surrounding tissue and then excised from the aortic arch to the diaphragm. Conjunctive tissues were next removed from the thoracic aorta and the vessels were divided into five rings of 4 mm. The endothelium of each aortic ring was removed by gently rubbing the vessel intimal surface. Aortic rings were then placed in a 5 ml organ bath filled with oxygenated normal Krebs–Henseleit buffer. Eighty microliters of a 2.5 M potassium chloride solution (40 mM final concentration) was used to evaluate maximal contractile responses of each vessel. […] Cumulative concentration–response curves to synthetic peptides were obtained by increasing the concentration of each peptide in the remaining organ chambers (10^−11–10^−5 M).

In another assay the target is T2, hUT (Homo sapiens, UniProt Q9UKP6).
T2 sequence (Q9UKP6 1-389): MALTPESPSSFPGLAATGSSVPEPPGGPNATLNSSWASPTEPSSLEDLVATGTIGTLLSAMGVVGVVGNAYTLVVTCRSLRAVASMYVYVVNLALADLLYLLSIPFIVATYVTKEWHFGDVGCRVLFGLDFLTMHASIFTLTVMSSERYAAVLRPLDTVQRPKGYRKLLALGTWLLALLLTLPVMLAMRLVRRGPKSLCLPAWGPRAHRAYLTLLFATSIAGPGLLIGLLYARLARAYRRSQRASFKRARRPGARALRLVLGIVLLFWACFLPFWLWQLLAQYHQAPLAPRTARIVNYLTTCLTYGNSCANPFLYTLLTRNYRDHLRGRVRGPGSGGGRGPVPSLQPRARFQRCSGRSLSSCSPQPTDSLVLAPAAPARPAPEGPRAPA
The experiment in a line: Gq activation, BRET biosensor, HEK 293-hUT cells. More on the design: expressed in transfected cells. The settings on record: mean ± SEM; for EC50: n = 3–5, read-out: Gq activation pEC50 (converted). Format: cell-based. How it is done:
Figure 6 Signaling signature of hUT-pepducins following hUT receptor activation. […] Each curve represents mean ± SEM of at least three independent concentration-response experiments performed in triplicate.
HEK 293-hUT cells were grown in DMEM culture media supplemented with 10% foetal bovine serum, HEPES, sodium pyruvate, and G418 (200 μg mL^−1). Passages were performed when cells reached 80% of confluency. Cells were initially plated in 96-well plates at a density of 10,000 cells/well. The following day, the medium is replaced with DMEM culture media supplemented with 2.5% foetal bovine serum (FBS), and 12 h later, cells were transiently transfected with 25 ng/well of a Gq-polycistronic, 25 ng/well of a G12-polycistronic BRET sensor, 25 ng/well of a G13-polycistronic BRET sensor, 2.5 ng/well pIRESB RLucII-ERK-NLS-GFP BRET sensor, 2.5 ng β-arrestin 1-polycistronic BRET sensor, or 2.5 ng β-arrestin 2-polycistronic BRET sensor using Lipofectamine2000 at a ratio of 3:1 (Lipofectamine/plasmid DNA) in serum-free Opti-MEM ([44], [81]). Sixteen hours posttransfection, medium was replaced with DMEM supplemented with 10% FBS, HEPES, sodium pyruvate and G418 (200 μg mL^−1) and cell growth was resumed for another 16 h. Cells were washed with 150 μl PBS solution supplemented with 0.1% of glucose and then incubated with 80 μl of this solution for 2 h. Then, to evaluate Gq and G12 activation, 10 μl of a 1/20 dilution (diluted before use) of coelenterazine 400A (stock at 1 mM in ethanol) in Kreb's buffer and 10 μl of the 10× appropriate concentration of peptide were added, and the luminescence was evaluated with an Infinite M1000 PRO. […] Readings were performed after 5 min using an Infinite M1000 PRO. Filters were set at 410 nm and 515 nm for detecting the Renilla luciferase II (RlucII, donor) and green fluorescent protein 10 (GFP10, acceptor) light emission, respectively. BRET ratio was determined by calculating the ratio of the light emitted by GFP10 over the light emitted by the RlucII.
Background: BRET reads energy transfer from a luciferase to a nearby fluorophore.

Where [1] appears, read: percentage of the activation induced by hUII (10^−6 M), n = 3–5.

Peptide text beside a SMILES is read from it. * marks the point of attachment. Palmitoyl = CCCCCCCCCCCCCCCC(=O)*

As usually defined, the Emax is the greatest response seen or fitted, relative to the assay's reference.

With `CCCCCCCCCCCCCCCC(=O)N[C@@H](Cc1c[nH]c2ccccc12)C(=O)N[C@@H](CC(C)C)C(=O)N[C@@H](CO)C(=O)N[C@@H](CCC(N)=O)C(=O)N[C@@H](CCCNC(=N)N)C(=O)N[C@@H](C)C(=O)N[C@@H](CO)C(=O)N[C@@H](Cc1ccccc1)C(=O)N[C@@H](CCCCN)C(=O)N[C@@H](CCCNC(=N)N)C(=O)N[C@@H](C)C(=O)N[C@@H](CCCNC(=N)N)C(=O)N[C@@H](CCCNC(=N)N)C(N)=O` [[Trp^1, Leu^2]hUT-Pep3] (Palmitoyl-WLSQRASFKRARR-NH2), the Emax came to 35 ± 6% at rat thoracic aorta rings and 29 ± 4% on hUT (setting [1]). The EC50 on hUT is 4.57 nM.
In the case of `CC(C)[C@H](NC(=O)[C@@H]1CSSC[C@H](NC(=O)[C@H](CC(=O)O)NC(=O)[C@@H]2CCCN2C(=O)[C@@H](NC(=O)[C@@H](N)CCC(=O)O)[C@@H](C)O)C(=O)N[C@@H](Cc2ccccc2)C(=O)N[C@@H](Cc2c[nH]c3ccccc23)C(=O)N[C@@H](CCCCN)C(=O)N[C@@H](Cc2ccc(O)cc2)C(=O)N1)C(=O)O` [hUII, urotensin II, reference compound], the “hUII-mediated contraction pEC50, control (no pretreatment)” value on rat thoracic aorta rings (rat aortic rings, hUII alone, mean ± SEM, n = 19) was 8.69 ± 0.08. At hUT (setting [1]), this compound displayed an Emax at 1 µM of 109 ± 5%.
Regarding `CCCCCCCCCCCCCCCC(=O)N[C@@H](CCCNC(=N)N)C(=O)N1CCC[C@H]1C(=O)N[C@@H](CC(C)C)C(=O)N[C@@H](CC(=O)O)C(=O)N[C@H](C(=O)N[C@H](C(=O)N[C@@H](CCC(N)=O)C(=O)N[C@@H](CCCNC(=N)N)C(=O)N1CCC[C@H]1C(=O)N[C@@H](CCCCN)C(=O)NCC(=O)N[C@@H](Cc1ccc(O)cc1)C(N)=O)C(C)C)[C@@H](C)O` [hUT-Pep2] (Palmitoyl-RPLDTVQRPKGY-NH2), the “shift of hUII / URP concentration–response curve” value on rat thoracic aorta rings (rat aortic rings, pepducin 10^−6 M pretreatment) is listed as “significant rightward shift in the concentration–response curve of hUII but not URP”. Further, the Emax on rat thoracic aorta rings was 86 ± 3%; at hUT (setting [1]), about 9%. In addition, the EC50 at hUT is 49 nM.

Source of the values: PMC8424217 (The Journal of Biological Chemistry, 2021).
